In US10239835B2, “N-alkylaryl-5-oxyaryl-octahydro-cyclopenta[c]pyrrole negative allosteric modulators of NR2B” (Luc Therapeutics, Inc., priority 2014, dated 2019):

Legend:
[1] = target: HEK293 cells expressing NR1/NR2B (Homo sapiens (Human), UniProt Q05586+Q13224); assay: NR2B NAM Assay (FDSS Ca2+ influx cell assay); assay type: cell-based; details: NR2B NAM assay, class of inhibitory concentration; read-out: Activity Category
Description: (§1) Cell Culture and plating: HEK293 cells expressing NR1/NR2B (Chantest, Cleveland, Ohio) were grown to 70-80% confluency as an adherent monolayer in standard tissue culture flasks at 37° C., 5% CO2 per supplier's instructions. NR2B expression was induced by incubation with 0.3-0.4 μg/ml tetracycline in the presence of 4 mM ARL-15896 for 18-24 hours under the same growth conditions, then transferred to 30° C. for another 3-5 hours.
(§2) After induction, cell culture medium was removed and cells were rinsed once with Ca^2+ and Mg^2+-free Dulbecco's phosphate buffered saline. Cells were then removed from the flask using TrypLE™ Express (Life Technologies) according to the manufacturer's instructions and collected to 50 ml centrifuge tubes. Following two washes in Ca^2+/Mg^2+-free HBSS with 20 mM HEPES (HHnoCa), cells were counted and viability assessed using trypan blue. To load cells with Ca^2+-sensitive dye, they were resuspended in fluo-8 plus Component B (AAT Bioquest Products) diluted in HHnoCa and incubated 15 minutes at 37° C., followed by 30 minutes at room temp (in dark). Cells were then washed and resuspended in HHnoCa to remove extracellular dye and plated in 384-well plates (Falcon, uncoated) at 20,000-30,000 cells/well in a final volume of 25 μl/well.
(§3) FDSS Assay: To each well of the plate, 10 μL test compound, control (MK801) or HHnoCa buffer was added at different concentrations to yield final concentrations of 0.001, 0.003, 0.010, 0.030, 0.100, 0.300, 1.000, 3.000, 10.000, or 30.000 uM final concentration of DMSO of 0.1%. Following 10 minutes pre-incubation in the dark, plates are loaded onto the Hamamatsu FDSS 6000. After collecting baseline fluorescence images, 3 μM glutamate, 3 μM glycine, and 1 mM Ca^2+ in HHnoCa buffer is added to each well, and Ca^2+ is recorded for 3 minutes. Data were processed by computing ratio of fluorescence at the end of data collection to baseline fluorescence to assess degree of Ca^2+ influx inhibition relative to that observed in MK801.
(§4) Table 8 below provides activity of each compound according to the legend that “++++” indicates inhibition at a concentration<100 nM; “+++” indicates inhibition at a concentration between 100 nM and 1 μM of the disclosed compound; “++” indicates inhibition at a concentration of from 1 μM to 10 μM; and “+” indicates inhibition at a concentration>10 μM.

[2] = target: HEK293 cells expressing NR1/NR2B (Homo sapiens (Human), UniProt Q13224); assay: NR2B NAM Assay (FDSS Ca2+ influx cell assay); assay type: cell-based; details: Ca2+ influx inhibition relative to MK801; 3 μM glutamate, 3 μM glycine, 1 mM Ca2+; read-out: NR2B NAM IC50
Description: as §1, §2, §3, §4

HEK293 cells expressing NR1/NR2B (Homo sapiens (Human), UniProt Q05586+Q13224), sequence (Q13224 27-1484, other chains not shown): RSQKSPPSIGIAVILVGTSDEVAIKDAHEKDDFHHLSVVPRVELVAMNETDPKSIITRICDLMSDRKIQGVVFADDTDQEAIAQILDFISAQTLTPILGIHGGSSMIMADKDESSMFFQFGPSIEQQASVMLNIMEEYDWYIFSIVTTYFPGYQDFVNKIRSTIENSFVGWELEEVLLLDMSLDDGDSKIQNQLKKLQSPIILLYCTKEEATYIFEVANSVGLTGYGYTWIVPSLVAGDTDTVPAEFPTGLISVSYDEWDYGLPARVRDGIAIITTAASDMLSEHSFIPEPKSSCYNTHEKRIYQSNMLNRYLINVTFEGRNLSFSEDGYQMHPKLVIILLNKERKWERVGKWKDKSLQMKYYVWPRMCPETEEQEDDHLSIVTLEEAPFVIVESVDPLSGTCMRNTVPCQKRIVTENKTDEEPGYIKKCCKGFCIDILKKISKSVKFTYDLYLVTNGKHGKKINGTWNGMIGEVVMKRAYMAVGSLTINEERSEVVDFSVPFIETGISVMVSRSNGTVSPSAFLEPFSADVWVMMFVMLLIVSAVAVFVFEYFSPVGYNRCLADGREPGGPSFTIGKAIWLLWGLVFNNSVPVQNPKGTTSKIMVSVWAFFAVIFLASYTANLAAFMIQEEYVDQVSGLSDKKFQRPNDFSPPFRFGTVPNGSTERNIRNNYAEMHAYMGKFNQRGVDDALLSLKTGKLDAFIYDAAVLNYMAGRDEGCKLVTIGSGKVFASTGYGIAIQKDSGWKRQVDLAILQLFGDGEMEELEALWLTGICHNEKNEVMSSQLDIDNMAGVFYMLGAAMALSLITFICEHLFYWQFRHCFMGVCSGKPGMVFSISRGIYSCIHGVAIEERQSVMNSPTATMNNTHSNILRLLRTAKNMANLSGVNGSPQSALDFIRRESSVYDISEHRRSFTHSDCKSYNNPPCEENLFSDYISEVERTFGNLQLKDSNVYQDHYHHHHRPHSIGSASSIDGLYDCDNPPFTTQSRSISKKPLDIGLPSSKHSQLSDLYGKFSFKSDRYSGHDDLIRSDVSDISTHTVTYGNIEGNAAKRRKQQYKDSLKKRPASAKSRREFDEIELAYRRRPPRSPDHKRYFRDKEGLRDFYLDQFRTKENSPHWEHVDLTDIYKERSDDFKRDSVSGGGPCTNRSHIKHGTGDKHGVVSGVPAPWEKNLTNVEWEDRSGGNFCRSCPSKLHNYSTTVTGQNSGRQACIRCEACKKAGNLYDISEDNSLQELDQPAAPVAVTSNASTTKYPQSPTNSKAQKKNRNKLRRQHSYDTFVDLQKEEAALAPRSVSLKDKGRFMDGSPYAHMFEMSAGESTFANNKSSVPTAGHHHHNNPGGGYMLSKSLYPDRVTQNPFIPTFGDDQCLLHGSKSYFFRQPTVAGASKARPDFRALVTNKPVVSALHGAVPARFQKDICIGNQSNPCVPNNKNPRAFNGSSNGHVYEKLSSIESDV
HEK293 cells expressing NR1/NR2B (Homo sapiens (Human), UniProt Q13224), sequence (Q13224 27-1484, other chains not shown): as above

Structure (SMILES) | IC50 [1] [µM] | IC50 [2] [µM]
O=C(CN1C[C@H]2C[C@H](Oc3ccc(F)c(F)c3)C[C@H]2C1)c1ccc(O)cn1 | 1 to 10 | 1.26
O=C(CN1C[C@H]2C[C@H](Oc3ccc(F)cc3)C[C@H]2C1)c1ccc(O)cn1 | 0.1 to 1 | 0.699
O=C(CN1C[C@H]2C[C@H](Oc3cc(F)cc(F)c3)C[C@H]2C1)c1ccc(O)cn1 | > 10 | 10
Oc1ccc(C(O)CN2C[C@H]3C[C@H](Oc4cc(F)cc(F)c4)C[C@H]3C2)nc1 (stereo partly shown) | < 0.1 | 0.0583
COc1ncccc1O[C@H]1C[C@@H]2CN(CC(=O)c3ccc(O)cc3)C[C@@H]2C1 | > 10 | 10
COC(CN1C[C@H]2C[C@H](Oc3ccc(F)cc3)C[C@H]2C1)c1ccc(OCc2ccccc2)cc1 (stereo partly shown) | > 10 | 10
Oc1ccc(C(O)CN2C[C@H]3C[C@H](Oc4cccnc4F)C[C@H]3C2)nc1 (stereo partly shown) | < 0.1 | 0.0209
N#Cc1ccc(O[C@@H]2C[C@@H]3CN(CC(O)c4ccc(O)cn4)C[C@@H]3C2)cc1 (stereo partly shown) | > 10 | 10
Oc1ccc(C(O)CN2C[C@H]3C[C@H](Oc4ccccc4F)C[C@H]3C2)cc1 (stereo partly shown) | < 0.1 | 0.00444
Oc1ccc(C(O)CN2C[C@H]3C[C@H](Oc4ccccc4)C[C@H]3C2)nc1 (stereo partly shown) | < 0.1 | 0.00572
Oc1ccc(C(O)CN2C[C@H]3C[C@H](Oc4cccnc4F)C[C@H]3C2)cc1F (stereo partly shown) | < 0.1 | 0.0217
Oc1ccc(C(O)CN2C[C@H]3C[C@H](Oc4ccc(F)nc4)C[C@H]3C2)nc1 (stereo partly shown) | 0.1 to 1 | 0.112
O=C(CN1C[C@H]2C[C@H](Oc3ccc(F)cc3F)C[C@H]2C1)c1ccc(O)cn1 | 1 to 10 | 1.15
O=C(CN1C[C@H]2C[C@H](Oc3c(F)cccc3F)C[C@H]2C1)c1ccc(O)cn1 | 1 to 10 | 1.08
O=C(CN1C[C@H]2C[C@H](Oc3ccc(F)cc3F)C[C@H]2C1)c1ccc(O)cc1 | < 0.1 | 0.0411
O=C(CN1C[C@H]2C[C@H](Oc3c(F)cccc3F)C[C@H]2C1)c1ccc(O)cc1 | < 0.1 | 0.0293
Oc1ccc(C(O)CN2C[C@H]3C[C@H](Oc4ccc(F)cc4F)C[C@H]3C2)cc1 (stereo partly shown) | < 0.1 | 0.00862
Oc1ccc(C(O)CN2C[C@H]3C[C@H](Oc4ccc(F)cc4)C[C@H]3C2)nc1 (stereo partly shown) | < 0.1 | 0.00441
COc1cccc(F)c1O[C@H]1C[C@@H]2CN(CC(=O)c3ccc(O)cn3)C[C@@H]2C1 | > 10 | 10
COc1ccc(F)c(O[C@H]2C[C@@H]3CN(CC(=O)c4ccc(O)cn4)C[C@@H]3C2)c1 | > 10 | 10
COc1ccc(F)c(O[C@H]2C[C@@H]3CN(CC(O)c4ccc(O)cn4)C[C@@H]3C2)c1 (stereo partly shown) | 0.1 to 1 | 0.547
COc1ccc(F)c(O[C@H]2C[C@@H]3CN(CC(O)c4ccc(O)cc4)C[C@@H]3C2)c1 (stereo partly shown) | 0.1 to 1 | 0.569
O=C(CN1C[C@H]2C[C@H](Oc3cccc(F)c3F)C[C@H]2C1)c1ccc(O)cn1 | 0.1 to 1 | 0.308
Oc1ccc(C(O)CN2C[C@H]3C[C@H](Oc4ccc(F)cc4F)C[C@H]3C2)nc1 (stereo partly shown) | < 0.1 | 0.00681
Cc1ccc(O[C@H]2C[C@@H]3CN(CC(O)c4ccc(O)cn4)C[C@@H]3C2)c(F)c1 (stereo partly shown) | < 0.1 | 0.0144
Cc1cccc(O[C@H]2C[C@@H]3CN(CC(O)c4ccc(O)cn4)C[C@@H]3C2)c1F (stereo partly shown) | < 0.1 | 0.0234
COc1cccc(O[C@H]2C[C@@H]3CN(CC(=O)c4ccc(O)cc4)C[C@@H]3C2)c1F | 0.1 to 1 | 0.117
Cc1cccc(O[C@H]2C[C@@H]3CN(CC(O)c4ccc(O)cc4)C[C@@H]3C2)c1F (stereo partly shown) | < 0.1 | 0.0726
Cc1ccc(O[C@H]2C[C@@H]3CN(CC(=O)c4ccc(O)cn4)C[C@@H]3C2)c(F)n1 | > 10 | 10

The remaining lines, values ahead:

IC50 [1] [µM] | IC50 [2] [µM] | Structure (SMILES)
< 0.1 | 0.0178 | Oc1ccc(C(O)CN2C[C@H]3C[C@H](Oc4ccc(F)c(F)c4)C[C@H]3C2)nc1 (stereo partly shown)
< 0.1 | 0.0807 | Oc1ccc(C(O)CN2C[C@H]3C[C@@H](Oc4ccc(F)c(F)c4)C[C@H]3C2)cc1 (stereo partly shown)
1 to 10 | 6.24 | O=C(CN1C[C@H]2C[C@H](Oc3ccccc3)C[C@H]2C1)c1ccc(O)cn1
> 10 | 10 | O=C(CN1C[C@H]2C[C@H](Oc3cccnc3F)C[C@H]2C1)c1ccc(O)c(F)c1
< 0.1 | 0.0168 | O=C(CN1C[C@H]2C[C@H](Oc3ccccc3F)C[C@H]2C1)c1ccc(O)cc1
< 0.1 | 0.0552 | O=C(CN1C[C@H]2C[C@H](Oc3ccc(F)nc3)C[C@H]2C1)c1ccc(O)cc1
> 10 | 10 | O=C(CN1C[C@H]2C[C@H](Oc3ccc(F)nc3)C[C@H]2C1)c1ccc(O)cn1
< 0.1 | 0.0741 | Oc1ccc(C(O)CN2C[C@H]3C[C@H](Oc4ccc(F)nc4)C[C@H]3C2)cc1 (stereo partly shown)
0.1 to 1 | 0.219 | O=C(CN1C[C@H]2C[C@H](Oc3ccccc3F)C[C@H]2C1)c1ccc(O)cn1
0.1 to 1 | 0.225 | Cc1ccc(O[C@H]2C[C@@H]3CN(CC(=O)c4ccc(O)cn4)C[C@@H]3C2)c(F)c1
< 0.1 | 0.0096 | Oc1ccc(C(O)CN2C[C@H]3C[C@H](Oc4c(F)cccc4F)C[C@H]3C2)nc1 (stereo partly shown)
0.1 to 1 | 0.139 | COC(CN1C[C@H]2C[C@H](Oc3ccc(F)cc3)C[C@H]2C1)c1ccc(O)cc1 (stereo partly shown)
0.1 to 1 | 0.149 | O=C(CN1C[C@H]2C[C@H](Oc3cnccn3)C[C@H]2C1)c1ccc(O)cc1
0.1 to 1 | 0.435 | Cc1cccc(O[C@H]2C[C@@H]3CN(CC(=O)c4ccc(O)cn4)C[C@@H]3C2)c1F
0.1 to 1 | 0.163 | COc1cccc(F)c1O[C@H]1C[C@@H]2CN(CC(O)c3ccc(O)cn3)C[C@@H]2C1 (stereo partly shown)
0.1 to 1 | 0.631 | COc1ccc(F)c(O[C@H]2C[C@@H]3CN(CC(=O)c4ccc(O)cc4)C[C@@H]3C2)c1
1 to 10 | 3.78 | COc1cccc(O[C@H]2C[C@@H]3CN(CC(=O)c4ccc(O)cn4)C[C@@H]3C2)c1F
0.1 to 1 | 0.243 | Oc1ccc(C(O)CN2C[C@H]3C[C@H](Oc4cnccn4)C[C@H]3C2)cc1 (stereo partly shown)
0.1 to 1 | 0.177 | Cc1cccc(O[C@H]2C[C@@H]3CN(CC(=O)c4ccc(O)cc4)C[C@@H]3C2)c1F
< 0.1 | 0.0508 | COc1cccc(O[C@H]2C[C@@H]3CN(CC(O)c4ccc(O)cn4)C[C@@H]3C2)c1F (stereo partly shown)
< 0.1 | 0.0777 | COc1cccc(O[C@H]2C[C@@H]3CN(CC(O)c4ccc(O)cc4)C[C@@H]3C2)c1F (stereo partly shown)
